Measurements as given in ChEMBL document CHEMBL3763108, “Application of PEG-400 as a green biodegradable polymeric medium for the catalyst-free synthesis of spiro-dihydropyridines and their use as acetyl and butyrylcholinesterase inhibitors” (Bioorg Med Chem, 2016).

Tests used:
Acetylcholinesterase = Acetylcholinesterase (Homo sapiens, UniProt P22303); assay: Inhibition of AChE (unknown origin) using acetylthiocholine as substrate assessed as reduction of DTNB to TNB preincubated for 20 mins followed by addition of substrate by Ellman's kinetic method
Cholinesterase = Cholinesterase (Homo sapiens, UniProt P06276); assay: Inhibition of BChE (unknown origin) using acetylthiocholine as substrate assessed as reduction of DTNB to TNB preincubated for 20 mins followed by addition of substrate by Ellman's kinetic method
[1] = target: T1, Cholinesterases; ACHE & BCHE (Homo sapiens) (UniProt P06276+P22303); assay: Selectivity ratio of IC50 for BChE (unknown origin) to IC50 for AChE (unknown origin) by Ellman's kinetic method
[2] = target: T1, Cholinesterases; ACHE & BCHE (Homo sapiens); assay: Selectivity ratio of IC50 for AChE (unknown origin) to IC50 for BChE (unknown origin) by Ellman's kinetic method

Chain of Cholinesterase (P06276 whole entry): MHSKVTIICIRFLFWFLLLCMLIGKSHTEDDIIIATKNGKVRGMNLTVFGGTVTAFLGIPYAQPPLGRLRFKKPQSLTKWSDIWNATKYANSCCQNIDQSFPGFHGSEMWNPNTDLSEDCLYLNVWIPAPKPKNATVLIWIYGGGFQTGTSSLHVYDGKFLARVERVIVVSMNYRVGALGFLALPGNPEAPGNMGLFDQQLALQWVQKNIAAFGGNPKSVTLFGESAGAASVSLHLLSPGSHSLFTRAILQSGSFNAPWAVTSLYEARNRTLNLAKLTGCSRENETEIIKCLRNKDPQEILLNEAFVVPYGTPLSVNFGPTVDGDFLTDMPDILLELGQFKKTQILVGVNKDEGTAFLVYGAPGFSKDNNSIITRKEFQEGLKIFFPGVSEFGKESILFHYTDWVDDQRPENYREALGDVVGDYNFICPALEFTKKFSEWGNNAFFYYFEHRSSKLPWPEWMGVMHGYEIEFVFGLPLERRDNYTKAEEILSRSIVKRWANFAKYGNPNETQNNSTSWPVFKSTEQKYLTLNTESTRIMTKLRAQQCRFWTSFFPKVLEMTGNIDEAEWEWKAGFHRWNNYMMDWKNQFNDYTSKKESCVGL
T1 sequence (P06276 whole entry, looked up): as the sequence (P06276 whole entry) above
T1 sequence (P22303 whole entry, looked up): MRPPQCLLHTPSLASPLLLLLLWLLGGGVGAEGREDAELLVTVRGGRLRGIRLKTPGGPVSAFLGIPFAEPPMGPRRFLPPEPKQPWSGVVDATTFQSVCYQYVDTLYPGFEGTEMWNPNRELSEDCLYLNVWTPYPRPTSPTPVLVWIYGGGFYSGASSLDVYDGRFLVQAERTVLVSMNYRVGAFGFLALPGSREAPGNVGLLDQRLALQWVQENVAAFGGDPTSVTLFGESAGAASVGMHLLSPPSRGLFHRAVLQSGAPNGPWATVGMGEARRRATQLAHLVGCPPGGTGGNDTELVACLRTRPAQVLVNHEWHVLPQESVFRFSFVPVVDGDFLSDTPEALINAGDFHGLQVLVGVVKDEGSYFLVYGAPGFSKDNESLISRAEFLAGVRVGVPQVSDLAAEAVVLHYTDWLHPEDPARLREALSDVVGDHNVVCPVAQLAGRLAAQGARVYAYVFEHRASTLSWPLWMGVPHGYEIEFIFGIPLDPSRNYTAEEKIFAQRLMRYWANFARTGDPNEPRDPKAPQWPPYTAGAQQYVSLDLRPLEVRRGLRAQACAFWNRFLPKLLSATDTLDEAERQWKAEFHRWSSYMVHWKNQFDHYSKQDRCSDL
Chain of Acetylcholinesterase (P22303 whole entry): as the sequence (P22303 whole entry, looked up) above

Row | Compound | IC50 (Acetylcholinesterase) [µM] | IC50 (Cholinesterase) [µM] | Ratio IC50 [1] | Ratio IC50 [2]
1 | CC1(C)CNC2=C([N+](=O)[O-])C3(C(=O)c4cccc5cccc3c45)C(C#N)=C(N)N2C1 (stereo not drawn) | 7.71 | 25.4 | 3.3 | 0.303
2 | N#CC1=C(N)N2CCCNC2=C([N+](=O)[O-])C12C(=O)Nc1ccc([N+](=O)[O-])cc12 (stereo not drawn) | 1.15 | 12.4 | 10.8 | 0.092
3 | Cc1ccc2c(c1)C1(C(=O)N2)C(C#N)=C(N)N2CC(C)(C)CNC2=C1[N+](=O)[O-] (stereo not drawn) | 1.39 | 14.7 | 10.6 | 0.095
4 | N#CC1=C(N)N(Cc2ccccc2)C(NCc2ccccc2)=C([N+](=O)[O-])C12C(=O)c1ccc(Br)c3c(Br)ccc2c13 (stereo not drawn) | 6.24 | 26.6 | 4.26 | 0.235
5 | N#CC1=C(N)N2CCCNC2=C([N+](=O)[O-])C12C(=O)Nc1ccc(F)cc12 (stereo not drawn) | 0.42 | 14.7 | 35 | 0.029
6 | Cc1ccc2c(c1)C1(C(=O)N2)C(C#N)=C(N)N(Cc2ccccc2)C(NCc2ccccc2)=C1[N+](=O)[O-] (stereo not drawn) | 3.71 | 13.5 | 3.64 | 0.275
7 | N#CC1=C(N)N2CCNC2=C([N+](=O)[O-])C12C(=O)Nc1ccc(F)cc12 (stereo not drawn) | 3.29 | 16.8 | 5.12 | 0.195
8 | Cc1ccc2c(c1)C1(C(=O)N2)C(C#N)=C(N)N2CCCNC2=C1[N+](=O)[O-] (stereo not drawn) | 0.94 | 12.3 | 13.1 | 0.076
9 | Cc1ccc2c(c1)C1(C(=O)N2)C(C#N)=C(N)N2CCNC2=C1[N+](=O)[O-] (stereo not drawn) | 3.86 | 16.2 | 4.21 | 0.238
10 | N#CC1=C(N)N(Cc2ccccc2)C(NCc2ccccc2)=C([N+](=O)[O-])C12C(=O)c1cccc3cccc2c13 (stereo not drawn) | 5.96 | 23.8 | 4 | 0.25
11 | N#CC1=C(N)N2CCNC2=C([N+](=O)[O-])C12C(=O)Nc1ccc([N+](=O)[O-])cc12 (stereo not drawn) | 3.24 | 14.1 | 4.34 | 0.23
12 | N#CC1=C(N)N2CCNC2=C([N+](=O)[O-])C12C(=O)c1ccc(Br)c3c(Br)ccc2c13 (stereo not drawn) | 6.37 | 26 | 4.09 | 0.245
13 | N#CC1=C(N)N(Cc2ccccc2)C(NCc2ccccc2)=C([N+](=O)[O-])C12C(=O)Nc1ccc(F)cc12 (stereo not drawn) | 3.54 | 15.1 | 4.26 | 0.235
14 | N#CC1=C(N)N(Cc2ccccc2)C(NCc2ccccc2)=C([N+](=O)[O-])C12C(=O)Nc1ccccc12 (stereo not drawn) | 3.96 | 15.3 | 3.86 | 0.259
15 | N#CC1=C(N)N2CCCNC2=C([N+](=O)[O-])C12C(=O)Nc1ccccc12 (stereo not drawn) | 1.02 | 8.93 | 8.76 | 0.114
16 | N#CC1=C(N)N2CCNC2=C([N+](=O)[O-])C12C(=O)c1cccc3cccc2c13 (stereo not drawn) | 7.08 | 23.8 | 3.36 | 0.298
17 | N#CC1=C(N)N2CCNC2=C([N+](=O)[O-])C12C(=O)Nc1ccccc12 (stereo not drawn) | 4.85 | 13.5 | 2.77 | 0.36
18 | N#CC1=C(N)N2CCCNC2=C([N+](=O)[O-])C12C(=O)c1cccc3cccc2c13 (stereo not drawn) | 6.59 | 26.1 | 3.96 | 0.252
19 | CC1(C)CNC2=C([N+](=O)[O-])C3(C(=O)Nc4ccc([N+](=O)[O-])cc43)C(C#N)=C(N)N2C1 (stereo not drawn) | 1.54 | 11.9 | 7.71 | 0.13
20 | CC1(C)CNC2=C([N+](=O)[O-])C3(C(=O)Nc4ccc(F)cc43)C(C#N)=C(N)N2C1 (stereo not drawn) | 1.07 | 15.9 | 14.9 | 0.067
21 | N#CC1=C(N)N2CCCNC2=C([N+](=O)[O-])C12C(=O)c1ccc(Br)c3c(Br)ccc2c13 (stereo not drawn) | 6.71 | 24.7 | 3.68 | 0.272
22 | COc1ccc2c3c1O[C@H]1CC(O)CC[C@@]31CCN(C)C2 (stereo partly drawn) |  |  | 5.12 | 0.196
23 | CC1(C)CNC2=C([N+](=O)[O-])C3(C(=O)c4ccc(Br)c5c(Br)ccc3c45)C(C#N)=C(N)N2C1 (stereo not drawn) | 5.98 | 23.8 | 3.98 | 0.251
24 | CC1(C)CNC2=C([N+](=O)[O-])C3(C(=O)Nc4ccccc43)C(C#N)=C(N)N2C1 (stereo not drawn) | 1.25 | 10.4 | 8.34 | 0.12
25 | N#CC1=C(N)N(Cc2ccccc2)C(NCc2ccccc2)=C([N+](=O)[O-])C12C(=O)Nc1ccc([N+](=O)[O-])cc12 (stereo not drawn) | 3.37 | 15 | 4.44 | 0.225
